Laboratory results: ChEMBL document CHEMBL4706477, “Synthesis and Biological Evaluation of Calothrixins B and their Deoxygenated Analogues” (J Med Chem, 2018)
Active and inactive are the calls of the source. The rule behind the calls is not given here.

Tests used:
[1] = biological target: T1, DNA topoisomerase 2-alpha (Homo sapiens, UniProt P11388); test: Inhibition of recombinant human topoisomerase 2 assessed as decrease in relaxation of supercoiled pBlue-Script KS(+) plasmid DNA at 40 uM incubated for 30 mins by ethidium bromide staining based gel electrophoresis method relative to control
[2] = system: HEK293; test: Antiproliferative activity against human HEK293 cells assessed as reduction in cell viability incubated for 48 hrs by sulphorhodamine B assay; type: functional
[3] = system: A549; test: Antiproliferative activity against human A549 cells assessed as reduction in cell viability incubated for 48 hrs by sulphorhodamine B assay; type: functional
[4] = system: HCT-116; test: Anticlonogenic activity against human HCT-116 cells assessed as inhibition of colony formation at 5 uM incubated for 48 hrs followed by compound washout with PBS and measured after 14 days by crystal violet staining based analysis; type: functional, cell-based
[5] = system: NCI-H460; test: Anticlonogenic activity against human NCI-H460 cells assessed as inhibition of colony formation at 5 uM incubated for 48 hrs followed by compound washout with PBS and measured after 14 days by crystal violet staining based analysis; type: functional, cell-based
[6] = system: HCT-116; test: Induction of cell cycle arrest in human HCT-116 cells at 5 uM incubated for 20 hrs by propidium iodide staining based flow cytometry analysis; type: functional
[7] = system: HCT-116; test: Induction of cell cycle arrest in human HCT-116 cells assessed as accumulation of cells at G2/M phase at 5 uM incubated for 48 hrs by propidium iodide staining based flow cytometry analysis; type: functional
[8] = biological target: T1, DNA topoisomerase 2-alpha; test: Inhibition of recombinant human topoisomerase 2 assessed as decrease in relaxation of supercoiled pBlue-Script KS(+) plasmid DNA at 200 uM incubated for 30 mins by ethidium bromide staining based gel electrophoresis method
[9] = biological target: T1, DNA topoisomerase 2-alpha; test: Inhibition of recombinant human topoisomerase 2 assessed as decrease in relaxation of supercoiled pBlue-Script KS(+) plasmid DNA incubated for 30 mins by ethidium bromide staining based gel electrophoresis method
[10] = biological target: T1, DNA topoisomerase 2-alpha; test: Inhibition of human topoisomerase 2 assessed as inhibition of etoposide-induced DNA cleavage complex formation by measuring linear DNA formation at 30 to 50 uM incubated for 30 mins using pRYG DNA as substrate by agarose gel electrophoresis analysis; details: dose 30-50 µM
[11] = system: HCT-116; test: Induction of DNA damage in human HCT-116 cells assessed as tail length at 5 uM incubated for 48 hrs by alkaline Comet assay relative to control; type: functional, cell-based
[12] = system: NCI-H460; test: Induction of DNA damage in human NCI-H460 cells at 5 uM incubated for 48 hrs by alkaline Comet assay relative to control; type: functional, cell-based
[13] = system: Calf thymus DNA; test: Binding affinity to calf thymus DNA assessed as hyperchromic effect measured at 299 nm at 3*10^-5 mol/L by double beam UV-Vis spectroscopic analysis; type: nucleic-acid assay; details: Bos taurus
[14] = system: Calf thymus DNA; test: Binding affinity to calf thymus DNA assessed as DNA intercalation by measuring positive CD band at 20*10^-6 mol/L by CD spectroscopy; type: nucleic-acid assay; details: Bos taurus
[15] = system: Calf thymus DNA; test: Binding affinity to calf thymus DNA assessed as DNA intercalation by measuring positive CD band at 26.6*10^-6 mol/L by CD spectroscopy; type: nucleic-acid assay; details: Bos taurus
[16] = biological target: T2, DNA topoisomerase 1 (Homo sapiens) (UniProt P11387); test: Inhibition of human topoisomerase 1 assessed as induction of negative supercoiled DNA using relaxed pBlue-Script KS(+) plasmid DNA as substrate measured after 15 mins by agarose gel electrophoresis analysis; details: dose 60-100 µM
T2 sequence (whole entry): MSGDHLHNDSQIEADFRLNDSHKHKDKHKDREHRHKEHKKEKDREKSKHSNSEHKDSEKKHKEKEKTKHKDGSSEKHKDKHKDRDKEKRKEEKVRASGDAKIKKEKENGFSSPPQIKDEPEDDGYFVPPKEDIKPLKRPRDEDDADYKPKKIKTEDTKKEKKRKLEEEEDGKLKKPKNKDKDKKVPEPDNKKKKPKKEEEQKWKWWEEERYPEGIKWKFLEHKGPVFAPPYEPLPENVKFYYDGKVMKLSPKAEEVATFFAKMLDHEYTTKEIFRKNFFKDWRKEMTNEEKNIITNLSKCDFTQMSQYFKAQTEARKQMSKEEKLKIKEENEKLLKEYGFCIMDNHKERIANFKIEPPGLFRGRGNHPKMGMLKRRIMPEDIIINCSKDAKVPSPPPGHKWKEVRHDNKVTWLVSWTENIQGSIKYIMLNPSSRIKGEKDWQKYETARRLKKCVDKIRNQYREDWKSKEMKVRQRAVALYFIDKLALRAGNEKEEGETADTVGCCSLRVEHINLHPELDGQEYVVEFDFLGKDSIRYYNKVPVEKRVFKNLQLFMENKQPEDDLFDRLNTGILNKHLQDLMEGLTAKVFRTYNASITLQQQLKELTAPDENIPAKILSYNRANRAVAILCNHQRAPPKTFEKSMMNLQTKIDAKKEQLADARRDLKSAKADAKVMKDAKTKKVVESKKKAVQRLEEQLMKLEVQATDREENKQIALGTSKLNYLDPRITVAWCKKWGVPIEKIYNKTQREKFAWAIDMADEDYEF

[17] = system: Jurkat; test: cells; details: Homo sapiens, 48 h
Description: Antiproliferative activity against human Jurkat cells assessed as reduction in cell viability incubated for 48 hrs by sulphorhodamine B assay

[18] = system: HeLa; test: cells; details: Homo sapiens, 48 h
Description: Antiproliferative activity against human HeLa cells assessed as reduction in cell viability incubated for 48 hrs by sulphorhodamine B assay

[19] = system: SiHa; test: cells; details: Homo sapiens, 48 h
Description: Antiproliferative activity against human SiHa cells assessed as reduction in cell viability incubated for 48 hrs by sulphorhodamine B assay

[20] = system: MCF7; test: cells; details: Homo sapiens, MCF7, 48 h
Description: Antiproliferative activity against human MCF7 cells assessed as reduction in cell viability incubated for 48 hrs by sulphorhodamine B assay

[21] = system: HCT-116; test: cells; details: Homo sapiens, HCT-116, 48 h
Description: Antiproliferative activity against human HCT-116 cells assessed as reduction in cell viability incubated for 48 hrs by sulphorhodamine B assay

[22] = system: U-251; test: cells; details: Homo sapiens, U-251, 48 h
Description: Antiproliferative activity against human U-251 cells assessed as reduction in cell viability incubated for 48 hrs by sulphorhodamine B assay

[23] = system: NCI-H460; test: cells; details: Homo sapiens, NCI-H460, 48 h
Description: Antiproliferative activity against human NCI-H460 cells assessed as reduction in cell viability incubated for 48 hrs by sulphorhodamine B assay

[24] = system: MDA-MB-231; test: cells; details: Homo sapiens, MDA-MB-231, 48 h
Description: Antiproliferative activity against human MDA-MB-231 cells assessed as reduction in cell viability incubated for 48 hrs by sulphorhodamine B assay

[25] = physchem; details: octanol/water
Description: Octanol/water partition coefficient, log P of the compound

[26] = physchem; details: octanol/buffer, pH 7.4
Description: Octanol/buffer distribution coefficient, log D of the compound at pH 7.4

T1 sequence (P11388 whole entry): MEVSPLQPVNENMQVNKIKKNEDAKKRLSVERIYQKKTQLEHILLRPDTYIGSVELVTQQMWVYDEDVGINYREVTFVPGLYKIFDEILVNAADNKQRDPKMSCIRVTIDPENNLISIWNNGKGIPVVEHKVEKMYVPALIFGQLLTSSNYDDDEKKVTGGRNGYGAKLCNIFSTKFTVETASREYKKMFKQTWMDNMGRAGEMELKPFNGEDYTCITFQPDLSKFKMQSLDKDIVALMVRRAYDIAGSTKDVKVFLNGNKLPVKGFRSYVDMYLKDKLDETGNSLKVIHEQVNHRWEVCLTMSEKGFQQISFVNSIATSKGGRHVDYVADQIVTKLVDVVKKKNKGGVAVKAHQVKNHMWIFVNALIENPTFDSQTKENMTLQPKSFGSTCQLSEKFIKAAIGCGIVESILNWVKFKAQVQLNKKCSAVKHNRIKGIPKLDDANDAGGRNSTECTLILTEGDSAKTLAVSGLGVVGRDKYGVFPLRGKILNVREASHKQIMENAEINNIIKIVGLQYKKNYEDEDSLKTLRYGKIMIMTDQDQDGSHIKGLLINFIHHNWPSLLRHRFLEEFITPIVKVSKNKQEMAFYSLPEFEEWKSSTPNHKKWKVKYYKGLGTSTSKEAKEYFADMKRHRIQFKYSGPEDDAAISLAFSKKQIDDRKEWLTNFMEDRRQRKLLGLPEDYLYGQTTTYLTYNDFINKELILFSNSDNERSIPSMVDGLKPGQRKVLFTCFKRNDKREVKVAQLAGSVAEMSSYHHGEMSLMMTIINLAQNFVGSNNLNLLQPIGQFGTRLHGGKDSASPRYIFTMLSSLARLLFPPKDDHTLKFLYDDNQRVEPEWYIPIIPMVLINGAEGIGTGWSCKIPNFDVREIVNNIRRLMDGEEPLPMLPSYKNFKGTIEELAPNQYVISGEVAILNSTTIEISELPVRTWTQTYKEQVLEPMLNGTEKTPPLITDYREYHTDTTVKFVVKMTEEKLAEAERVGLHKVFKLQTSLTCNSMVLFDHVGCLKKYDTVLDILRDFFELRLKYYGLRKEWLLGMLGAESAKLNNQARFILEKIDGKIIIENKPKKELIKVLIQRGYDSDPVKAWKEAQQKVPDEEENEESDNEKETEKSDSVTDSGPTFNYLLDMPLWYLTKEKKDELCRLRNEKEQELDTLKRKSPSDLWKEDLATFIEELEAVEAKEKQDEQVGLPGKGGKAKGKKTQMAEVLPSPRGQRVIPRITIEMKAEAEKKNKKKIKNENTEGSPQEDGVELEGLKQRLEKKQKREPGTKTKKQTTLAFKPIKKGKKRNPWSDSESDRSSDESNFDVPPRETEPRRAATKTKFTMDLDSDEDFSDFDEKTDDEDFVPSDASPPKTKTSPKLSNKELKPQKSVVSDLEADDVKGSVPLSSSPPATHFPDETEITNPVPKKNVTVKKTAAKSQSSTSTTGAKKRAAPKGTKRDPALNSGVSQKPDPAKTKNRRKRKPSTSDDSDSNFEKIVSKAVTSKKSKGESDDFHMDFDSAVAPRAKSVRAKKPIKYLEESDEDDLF

In the case of `c1ccc2c(c1)ncc1cc3c(cc12)[nH]c1ccccc13`, the inhibition [1] is reported as 97%, the GI50 [2] is reported as greater than 4 µM and the GI50 [3] is reported as greater than 4 µM. The inhibition [4] was “inactive”, the inhibition [5] was “inactive” and the Activity [6] was “inactive”. The Activity [7] was “inactive”, the inhibition [8] was 100% and the IC50 [9] was 23.4 µM. For the same compound, the IC90 [9] was 41.5 µM, the inhibition [9] was “Dose-dependent effect” and the inhibition [10] was “Active”. The Activity [11] was “inactive”, the Activity [12] was “inactive” and the Activity [13] was 30%. For the same compound, the Activity [14] was “Active”, the Activity [15] was “Active” and the Activity [16] was “Dose-dependent effect”. It also gave a GI50 [17] of 4 µM, a GI50 [18] of 0.41 µM and a GI50 [19] greater than 4 µM. For the same compound, the GI50 [20] was greater than 4 µM, the GI50 [21] was 11.5 µM and the GI50 [22] was greater than 4 µM. For the same compound, the GI50 [23] was 5.5 µM, the GI50 [24] was greater than 4 µM and the logP [25] was -1.25. The logD [26] was -1.55.
